Consider 26 compounds from US7939558B2, “Compounds having activity in increasing ion transport by mutant-CFTR and uses thereof” (The Regents of the University of California, priority 2004, dated 2011).

Chain of ΔF508-CFTR (P13569 with tags, fused parts or gaps DEL508-508): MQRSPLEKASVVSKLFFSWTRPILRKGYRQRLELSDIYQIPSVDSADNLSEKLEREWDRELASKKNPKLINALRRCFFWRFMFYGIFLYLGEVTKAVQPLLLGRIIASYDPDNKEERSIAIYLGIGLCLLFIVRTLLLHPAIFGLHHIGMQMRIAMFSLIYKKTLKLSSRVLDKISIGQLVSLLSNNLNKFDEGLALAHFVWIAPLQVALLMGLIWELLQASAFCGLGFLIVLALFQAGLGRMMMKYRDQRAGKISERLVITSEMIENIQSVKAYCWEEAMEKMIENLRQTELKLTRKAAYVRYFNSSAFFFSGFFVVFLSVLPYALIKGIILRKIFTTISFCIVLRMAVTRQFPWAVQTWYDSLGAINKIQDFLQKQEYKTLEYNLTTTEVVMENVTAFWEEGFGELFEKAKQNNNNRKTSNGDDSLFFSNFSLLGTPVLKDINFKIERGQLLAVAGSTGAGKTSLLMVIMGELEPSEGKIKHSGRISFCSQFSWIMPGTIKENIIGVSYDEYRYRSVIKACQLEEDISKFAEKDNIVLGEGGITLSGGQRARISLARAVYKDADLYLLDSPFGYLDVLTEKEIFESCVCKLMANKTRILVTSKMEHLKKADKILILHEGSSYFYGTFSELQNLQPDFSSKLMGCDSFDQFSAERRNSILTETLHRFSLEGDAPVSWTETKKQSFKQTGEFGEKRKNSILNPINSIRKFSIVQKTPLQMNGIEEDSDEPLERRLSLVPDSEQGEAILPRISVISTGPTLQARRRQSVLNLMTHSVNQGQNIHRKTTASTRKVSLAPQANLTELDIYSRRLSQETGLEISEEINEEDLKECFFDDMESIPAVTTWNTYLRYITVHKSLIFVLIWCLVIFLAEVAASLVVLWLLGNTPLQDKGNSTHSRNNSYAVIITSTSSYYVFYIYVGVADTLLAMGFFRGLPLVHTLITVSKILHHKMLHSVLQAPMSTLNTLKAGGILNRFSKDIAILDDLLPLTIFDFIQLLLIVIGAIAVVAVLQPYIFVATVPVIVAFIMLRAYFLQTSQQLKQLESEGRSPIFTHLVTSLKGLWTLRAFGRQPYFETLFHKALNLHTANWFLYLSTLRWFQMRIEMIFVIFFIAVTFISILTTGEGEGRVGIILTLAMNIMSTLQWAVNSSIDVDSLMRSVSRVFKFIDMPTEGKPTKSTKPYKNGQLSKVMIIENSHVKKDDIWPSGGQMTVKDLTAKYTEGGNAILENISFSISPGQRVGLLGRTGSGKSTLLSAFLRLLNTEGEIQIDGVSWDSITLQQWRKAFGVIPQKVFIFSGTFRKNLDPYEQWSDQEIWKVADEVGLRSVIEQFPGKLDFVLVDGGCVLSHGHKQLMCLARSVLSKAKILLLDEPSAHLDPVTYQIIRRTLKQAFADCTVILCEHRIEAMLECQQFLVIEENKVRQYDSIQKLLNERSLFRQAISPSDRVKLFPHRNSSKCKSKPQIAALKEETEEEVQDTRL

Tested on in one data set: not listed separately
The experiment in a line: Stability in hepatic microsomes (LCMS). The class given is in vitro ADME, rat. The conditions noted are these: 10 μM, 1 hour, 37° C., presence of NADPH. The procedure:
A minor metabolite was also detected at 7.43 min with m/z 428. […] Compound S-3 was ˜35% degraded after a 1 hour incubation with liver microsomes in presence of NADPH.
As for `CCN(c1ccccc1)S(=O)(=O)c1ccc2[nH]cc(C(=O)NCc3ccccc3OC)c(=O)c2c1` [Compound S-3], the “compound metabolized / degraded” value was about 35%.

The next data set has as its target ΔF508-CFTR (Homo sapiens, UniProt P13569, DEL508-508). The experiment in a line: Fluorescence (YFP-H148Q/I152L) I− influx assay of ΔF508-CFTR potentiator activity in FRT cells. The class given is cell-based. Details: expressed in transfected cells. The conditions noted are these: phenylglycine containing compounds, 27° C. 24 h, forskolin 20 μM, read-out: Ka. The procedure: Clonal populations of Fischer rat thyroid (FRT) epithelial cells stably co-expressing human ΔF508-CFTR and the high-sensitivity halide-sensing green fluorescent analog YFP-H148Q/I152L (Galietta et al., A.S. (2001) FEBS Lett. 499, 220-224) were generated by liposome transfection and limiting dilution with Zeocin/G418 selection. More than 100 clones were evaluated for high fluorescence and ΔF508-CFTR plasma membrane targeting after growth at 27° C. for 24 hours. For screening, cells were cultured on plastic in Coon's modified F12 medium supplemented with 10% fetal bovine serum, 2 mM L-glutamine, 100 U/ml penicillin, and 100 μg/ml streptomycin, and plated on black 96-well microplates (Corning-Costar 3904) at 30,000 cells/well. For short-circuit measurements cells were cultured on Snapwell permeable supports (Corning-Costar) at 500,000 cells/insert. Human nasal epithelium cells from CF patients were cultured on Snapwell inserts and allowed to differentiate in a hormone-supplemented medium (Galietta et al., Am. J. Physiol., […]). Some measurements were done using stably transfected FRT cells expressing YFP-H148Q and wildtype- or G551D-CFTR (Galietta et al., (2001) J. Biol. Chem. 276, 19723-19728). Patch clamp experiments were done on ΔF508-CFTR-expressing FRT cells plated in 35-mm Petri dishes.
Screening was carried out using a Beckman integrated system containing a 3-meter robotic arm, CO2 incubator containing microplate carousel, plate-washer, liquid handling workstation, bar code reader, delidding station, plate sealer, and two FluoStar fluorescence plate readers (Galaxy, BMG Lab Technologies), each equipped with dual syringe pumps and HQ500/20X ([…]) excitation and HQ535/30M (535±15 nm) emission filters (Chroma). Software was written in VBA (Visual Basic for Applications) to compute baseline-subtracted fluorescence slopes (giving halide influx rates).
For assay of ΔF508-CFTR potentiator activity the incubator (27° C., 90% humidity, 5% CO2/95% air) was loaded with forty-to-sixty 96-well plates containing FRT cells. After an 18-24 hour incubation plates were washed 3 times with PBS (300 μl/wash) leaving 50 μl PBS. 10 μl of PBS containing 120 μM forskolin was added, and after 5 min test compounds (0.6 μl of 0.25 mM DMSO solution) were added to each well to give 2.5 μM final compound concentrations. After 15 min, 96-well plates were transferred to a plate reader for fluorescence assay. Each well was assayed individually for I^− influx by recording fluorescence continuously (200 ms per point) for 2 seconds (baseline) and then for 12 seconds after rapid (<1 s) addition of 160 μL of isosmolar PBS in which 137 mM Cl^− was replaced by I^−. I^− influx rates were computed from initial fluorescence versus time-curve slopes (determined by 3rd order polynomial regression) after normalization for total fluorescence (background subtracted initial fluorescence). All compound plates contained negative control (DMSO vehicle alone) and positive controls (genistein, 5 μM and 50 μM). Assay analysis indicated a Z′-factor of >0.7 (Zhang et al., J. Biomol. Screen 4:67-73 (1999)).
The high-throughput screen was designed to identify compounds that activated ΔF508-CFTR when expressed at the cell plasma membrane. FRT epithelial cells co-expressing ΔF508-CFTR and a high sensitivity yellow fluorescent protein-based halide indicator were incubated at 27° C. for 24 h to permit ΔF508-CFTR plasma membrane targeting (FIG. 1, panel A). After washing, forskolin (20 μM) and test compounds (2.5 μM) were added to individual wells of 96-well plates. The I^− influx assay was carried out ˜15 min later by measurement of the time course of decreasing YFP fluorescence after creation of an inwardly-directed I^− gradient. A high concentration of forskolin was used to identify ΔF508-CFTR potentiators that may interact directly with ΔF508-CFTR rather than alter cAMP concentration. […]
Take `COc1ccc(NC(=O)C(c2ccc(OC)cc2)N(C)C(=O)Cc2c[nH]c3ccccc23)cc1` (stereo not shown) [Compound P-8, 2-[(2-1H-Indol-3-yl-acetyl)-methyl-amino]-2,N-bis-(4-methoxy-phenyl)-acetamide]: the EC50 amounted to 2130 nM. Consider `Cc1ccc(C(C(=O)Nc2ccc3c(c2)OCO3)N(C)C(=O)Cc2c[nH]c3ccccc23)cc1` (stereo not shown) [Compound P-7, N-Benzo[1,3]dioxol-5-yl-2-[(2-1H-indol-3-yl-acetyl)-methyl-amino]-2-p-tolyl-acetamide], for which the EC50 was determined as 1330 nM.

Staying with this data set, now noted: sulfonamide containing compounds, 27° C. 24 h, forskolin 20 μM, read-out: Ka.
Take `CCN(c1ccccc1)S(=O)(=O)c1ccc2[nH]cc(C(=O)NCc3ccccc3OC)c(=O)c2c1` [Compound S-3]: the EC50 amounted to 30 nM. `COc1ccc(Cl)cc1N(C)S(=O)(=O)c1ccc2[nH]cc(C(=O)NCCC3=CCCCC3)c(=O)c2c1` [Compound S-23]: the EC50 worked out at 370 nM. For the compound `CCCCNC(=O)c1c[nH]c2ccc(S(=O)(=O)N(C)c3c(C)cccc3C)cc2c1=O` [Compound S-20, 6-[(2,6-Dimethyl-phenyl)-methyl-sulfamoyl]-4-oxo-1,4-dihydro-quinoline-3-carboxylic acid butylamide], the EC50 was found to be 330 nM. Still for that read-out and setting: with `CCN(c1ccccc1)S(=O)(=O)c1ccc2[nH]cc(C(=O)NCc3ccc(C)cc3)c(=O)c2c1` [Compound S-33] the figure was 590 nM. `CCCNC(=O)c1c[nH]c2ccc(S(=O)(=O)N(C)c3ccc(F)cc3)cc2c1=O` [Compound S-55]: the EC50 amounted to 1250 nM. With `CCc1ccccc1N(C)S(=O)(=O)c1ccc2[nH]cc(C(=O)NCc3ccccn3)c(=O)c2c1` [Compound S-18], the EC50 is 270 nM. As for `CCC(C)NC(=O)c1c[nH]c2ccc(S(=O)(=O)N(C)c3ccc(Br)cc3)cc2c1=O` (stereo not shown) [Compound S-45], the EC50 stood at 810 nM.

As to `O=C(NC1CCCCC1)c1c[nH]c2ccc(S(=O)(=O)N3CCc4ccccc43)cc2c1=O` [Compound S-32, 6-(2,3-Dihydro-indole-1-sulfonyl)-4-oxo-1,4-dihydro-quinoline-3-carboxylic acid cyclohexylamide], the EC50 was 570 nM. As for `COCCCNC(=O)c1c[nH]c2ccc(S(=O)(=O)N(C)c3c(C)cccc3C)cc2c1=O` [Compound S-61], the EC50 worked out at 1420 nM. In the case of `CCOCCCNC(=O)c1c[nH]c2ccc(S(=O)(=O)N(C)c3ccccc3CC)cc2c1=O` [Compound S-36], the EC50 is 620 nM. Same read-out and setting: with `CCN(c1ccccc1)S(=O)(=O)c1ccc2[nH]cc(C(=O)NC3CCCCC3)c(=O)c2c1` [Compound S-4] the figure was 30 nM; with `CCC(C)NC(=O)c1c[nH]c2ccc(S(=O)(=O)N(C)c3ccccc3C)cc2c1=O` (stereo not shown) [Compound S-59], 1280 nM.

As for `CCN(c1ccccc1)S(=O)(=O)c1ccc2[nH]cc(C(=O)NCC3CCCO3)c(=O)c2c1` (stereo not shown) [Compound S-17], the EC50 stood at 240 nM. On to `CCOCCCNC(=O)c1c[nH]c2ccc(S(=O)(=O)N(C)c3ccc(Cl)cc3F)cc2c1=O` [Compound S-60], for which the EC50 came out at 1370 nM. With `CCN(c1cccc(C)c1)S(=O)(=O)c1ccc2[nH]cc(C(=O)NCCC(C)C)c(=O)c2c1` [Compound S-40], the EC50 is 720 nM. As to `CCCCCNC(=O)c1c[nH]c2ccc(S(=O)(=O)N(C)c3cccc(C)c3)cc2c1=O` [Compound S-15], the EC50 came out at 220 nM. Take `CCN(c1ccccc1)S(=O)(=O)c1ccc2[nH]cc(C(=O)NCCC3=CCCCC3)c(=O)c2c1` [Compound S-16]: the EC50 came to 240 nM.

As to `CCN(c1ccccc1)S(=O)(=O)c1ccc2[nH]cc(C(=O)NCCCOC)c(=O)c2c1` [Compound S-9, 6-(Ethyl-phenyl-sulfamoyl)-4-oxo-1,4-dihydro-quinoline-3-carboxylic acid (3-methoxy-propyl)-amide], the EC50 came out at 140 nM.

For the compound `COCCCNC(=O)c1c[nH]c2ccc(S(=O)(=O)N(C)c3cc(C)ccc3C)cc2c1=O` [Compound S-19], the EC50 is 290 nM. Consider `CCN(CC)S(=O)(=O)c1ccc2[nH]cc(C(=O)NCc3ccc(OC)cc3)c(=O)c2c1` [Compound S-39], for which the EC50 came out at 660 nM. As to `CCCCNC(=O)c1c[nH]c2ccc(S(=O)(=O)N(C)c3ccccc3C)cc2c1=O` [Compound S-13], the EC50 was determined as 200 nM. Consider `CCN(c1ccc(F)cc1)S(=O)(=O)c1ccc2[nH]cc(C(=O)NCC3CCCO3)c(=O)c2c1` (stereo not shown) [Compound S-30, 6-[Ethyl-(4-fluoro-phenyl)-sulfamoyl]-4-oxo-1,4-dihydro-quinoline-3-carboxylic acid (tetrahydro-furan-2-ylmethyl)-amide], for which the EC50 came to 540 nM. Regarding `CCCNC(=O)c1c[nH]c2ccc(S(=O)(=O)N(C)c3ccc(Cl)cc3F)cc2c1=O` [Compound S-62], the EC50 came out at 1450 nM.

A further data set addresses multiple drug resistance protein-1 (MDR-1) (Homo sapiens, UniProt P08183). As to the kind of experiment: MDR-1 activity by rhodamine 123 accumulation in 9HTEo- and 9HTEo-/Dx cells. The conditions noted are these: verapamil 100 μM; P-1 and S-1 5 μM.
`COc1ccc(CCN(C)CCCC(C#N)(c2ccc(OC)c(OC)c2)C(C)C)cc1OC` (stereo not shown) [verapamil, reference compound]: the “rhodamine 123 dye accumulation in 9HTEo-/Dx cells” value is reported as “increased significantly”.

Tested on in a further data set: not listed separately
As to the kind of experiment: Pharmacokinetics in rats after intravenous bolus. It counts as in vivo, rat. The conditions noted are these: 5 mg/Kg intravenous bolus, plasma. On the procedure:
A bolus of potentiator-containing solution (5 mg/kg) was administered intravenously in rats over 1 min (male Sprague-Dawley rats, 360-420 grams) by a jugular vein catheter. Arterial blood samples (1 ml) were obtained at predetermined times for LCMS analysis.
For analysis of blood samples, collected plasma was chilled on ice, and ice-cold acetonitrile (2:1 v:v) was added to precipitate proteins. Samples were centrifuged at 4° C. at 20,000 g for 10 min. […] The eluate was evaporated, and the residue was reconstituted in 100 μl of mobile phase for HPLC analysis. Reversed-phase HPLC separations were carried out using a Supelco C18 column (2.1×100 mm, 3 μm particle size) connected to a solvent delivery system (Waters model 2690, Milford, Mass.). The solvent system consisted of a linear gradient from 20% CH3CN/10 mM KH2PO4, pH 3 to 95% CH3CN/10 mM KH2PO4, pH 3 over 10 min, followed by 6 min at 95% CH3CN/20 mM NH4OAc (0.2 ml/min flow rate). […] The detection limit was 10 nM and recovery was >90%. Mass spectra were acquired on a mass spectrometer (Alliance HT 2790+ZQ) using negative ion detection, scanning from 200 to 800 Da (Sonawane et al., J. Pharm. Sci. 94:134-143 (2004)).
Turning to `CCN(c1ccccc1)S(=O)(=O)c1ccc2[nH]cc(C(=O)NCc3ccccc3OC)c(=O)c2c1` [Compound S-3], the elimination half-time entry is on record as “approximately 1.3 hours”.
